Test results published in patent US7838218B2, “Light emitting probes” (priority 2003, dated 2010).

Target: T1, rabbit serum albumin (RSA) (Oryctolagus cuniculus, UniProt P49065)
T1 construct: purchased Sigma (Sigma-Aldrich Chemical Co.)
Assay: Fluorescence emission of probes with rabbit serum albumin as binder
Type: binding
Settings: pyrene butyric acid excited at 345 nm, FITC at 490 nm; PBS
Method: Fluorescence measurements were made on a Hitachi F-2500 fluorescence spectrophotometer with a 1 cm path length cuvette. Spectra were measured at a rate of 1500 nm/min. Excitation wavelength of 345 nm was used for pyrene and 490 nm for FITC.
Lifetimes were measured on modified IBH machine.
Proteins with hydrophobic pockets could be used as binders. […] The binder is not restricted to proteins. […] The excitation wavelength was 345 nm.

T1 sequence (P49065 25-608): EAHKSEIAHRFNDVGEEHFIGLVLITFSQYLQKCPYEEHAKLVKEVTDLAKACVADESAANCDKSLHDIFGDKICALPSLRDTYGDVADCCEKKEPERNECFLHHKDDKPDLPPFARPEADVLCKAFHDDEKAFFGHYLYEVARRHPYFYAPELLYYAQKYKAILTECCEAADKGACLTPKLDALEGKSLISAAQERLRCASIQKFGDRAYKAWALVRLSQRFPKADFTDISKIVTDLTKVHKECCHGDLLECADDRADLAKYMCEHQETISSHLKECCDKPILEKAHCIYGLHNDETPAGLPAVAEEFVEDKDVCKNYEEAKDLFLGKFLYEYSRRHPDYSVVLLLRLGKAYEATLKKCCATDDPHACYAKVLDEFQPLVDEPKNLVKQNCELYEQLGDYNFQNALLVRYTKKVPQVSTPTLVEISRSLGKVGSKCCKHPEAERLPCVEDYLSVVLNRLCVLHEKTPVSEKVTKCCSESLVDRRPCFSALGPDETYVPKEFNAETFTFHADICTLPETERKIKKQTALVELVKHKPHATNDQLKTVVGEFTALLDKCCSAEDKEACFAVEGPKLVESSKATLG

Structure (SMILES)	effect of RSA on own emission spectrum of the free fluorophore
O=C1OC2(c3ccc(O)cc3Oc3cc(O)ccc32)c2ccc(N=C=S)cc21 [FITC, fluorescein isothiocynate]	appears not to change
c1cc2ccc3cccc4ccc(c1)c2c34 [pyrene butyric acid]	increasing the fluorescence intensity
